Source: patent publication US20250375430A1, “USE OF DIHYDROBERBERINE TO PROMOTE RECRUITMENT AND ACTIVATION OF BROWN ADIPOSE TISSUES” (NANJING NUTRABUILDING BIO-TECH CO., LTD., priority 2023, published 2025)

Experiments:
brown adipocyte = details: by increasing transcription of PRDM16 via AMPK activation and PGC-1α recruitment; cited from earlier work
obese db/db mice = details: cited from earlier work
C57BL/6J mice [1] = assay: Rectal temperature in the cold room; type: in vivo; details: cold room 4-8° C.; 9th and 14th week; FIG. 15
Method: (§1) Six-week-old male C57BL/6J mice were housed in a temperature-and relative humidity-controlled room (22±2° C., 55±5%) with a 12 h light-dark cycle and free access to food and water. For chronic anti-obesity studies, all mice were fed the high-fat diet (HFD, 60% calories from fat, 20% calories from protein, 20% calories from carbohydrate) for 8 weeks. At 14 weeks of age, all mice were randomly divided into 3 groups of 10 animals: (1) non-supplement group (Con Food only, Group 1); (2) DHB supplement group (DHB+Food. 50 mg/kg, Group 2); (3) DHB supplement group (DHB+Food, 100 mg/kg, Group 3). The mice in group 2 and group 3 were intraperitoneal injection (i.p.) administrated with DHB in normal saline solution daily for 6 weeks between 9:30 and 11:30 am, and food and water were given ad libitum.

C57BL/6J mice [2] = assay: i.p. glucose tolerance test (GTT) in obese mice; type: in vivo; details: 4th week of supplementation; glucose 0.75 g/kg i.p.; 0-120 min; especially higher dose; FIG. 5
Method: as §1

UCP1 and PGC-1α = assay: mRNA levels of brown fat-enriched genes in adipose tissues (inguinal WAT) by real-time PCR; type: in vivo, mice
Method: Six-week-old male C57BL/6J mice were housed in a temperature-and relative humidity-controlled room (22±2° C., 55±5%) with a 12 h light-dark cycle and free access to food and water. For chronic anti-obesity studies, all mice were fed the high-fat diet (HFD, 60% calories from fat, 20% calories from protein, 20% calories from carbohydrate) for 8 weeks.
At 14 weeks of age, all mice were randomly divided into 3 groups of 10 animals: (1) non-supplement group (Con Food only, Group 1); (2) DHB supplement group (DHB+Food. 50 mg/kg, Group 2); (3) DHB supplement group (DHB+Food, 100 mg/kg, Group 3).
The mice in group 2 and group 3 were intraperitoneal injection (i.p.) administrated with DHB in normal saline solution daily for 6 weeks between 9:30 and 11:30 am, and food and water were given ad libitum.
At the end of the study, all mice were anesthetized with chloral hydrate, all relevant tissues like inguinal and perirenal adipose were dissected, weighed, immediately frozen in liquid nitrogen, and stored at −80° C.
The mRNA levels of brown fat-enriched genes such as UCP1 and PGC-1α from adipose tissues (like inguinal WAT) were determined by real-time PCR analysis.

C57BL/6J mice [3] = assay: Plasma TC, TG, LDL, VLDL measured with kits in high-fat diet mice; type: in vivo
Method: as §1, with “3). After an eight-week induction, the mice in group I were intraperitoneal injection (i.p.) administrated with normal saline between 9:30 and 11:30 am, and food and water were given ad libitum.” for “3).”, “libitum. The total experimental time is 14 weeks, including two periods: an eight-week induction period and a subsequent six-week supplement period. Plasma total cholesterol (TC), triglyceride (TG), low-density lipoprotein (LDL), and very low-density lipoprotein (VLDL) were measured using corresponding kits according to the manufacturers' instructions.” for “libitum.”

[4] = in vitro; cited from earlier work
C57BL/6J mice [5] = assay: Energy expenditure by comprehensive lab animal monitoring system (CLAMS), indirect calorimeter; type: in vivo
Method: Six-week-old male C57BL/6J mice were housed in a temperature-and relative humidity-controlled room (22±2° C., 55±5%) with a 12 h light-dark cycle and free access to food and water. For chronic anti-obesity studies, all mice were fed the high-fat diet (HFD, 60% calories from fat, 20% calories from protein, 20% calories from carbohydrate) for 8 weeks. At 14 weeks of age, all mice were randomly divided into 3 groups of 10 animals: (1) non-supplement group (Con Food only, Group 1); (2) DHB supplement group (DHB+Food. 50 mg/kg, Group 2); (3) DHB supplement group (DHB+Food, 100 mg/kg, Group 3). The mice in group 2 and group 3 were intraperitoneal injection (i.p.) administrated with DHB in normal saline solution daily for 6 weeks between 9:30 and 11:30 am, and food and water were given ad libitum. A key factor for controlling energy homoeostasis is the balance between caloric intake and energy expenditure. We analyzed the actions of DHB on energy expenditure using comprehensive lab animal monitoring system (CLAMS). Metabolic analysis was conducted between 8:30 am and 7:30 pm at the last week of experiment to identify […]. O2 consumption, CO2 production, and locomotor activity were measured using a 16-chamber indirect calorimeter. The mice were acclimated to the system for 20-24 h, and measurement of VO2 and VCO2 was performed during the next 24 h. The mice were maintained at 24° C. under a 12 h light/dark cycle. Food and water were available ad libitum. Voluntary activity was derived from the x-axis beam breaks monitored every 15 min. Heat production (energy expenditure) was calculated using the following equation: [formula] where heat is measured in kcal h^−1, VO2 is measured in litres kg^−1 h^−1 and body weight is measured in kg.

C57BL/6J mice [6] = assay: Body weight and fat mass by nuclear magnetic resonance body composition analyzer; type: in vivo
Method: as §1, with “libitum. The body weight and fat mass of all mice were performed by the nuclear magnetic resonance body composition analyzer by Nuclear Magnetic Resonance Body Composition Analyzer in accordance with manufacturer's instruction. The body weight and fat mass were tested weekly (9-14 weeks) and at 9th and 14th week before supplementation and feeding, respectively.” for “libitum.”

[7] = mice, including mice lacking intestinal bacteria needed to break down BBR; cited from earlier work
C57BL/6J mice [8] = assay: Insulin tolerance test (ITT); type: in vivo; details: FIG. 6
Method: as §1, with “libitum. An insulin tolerance test (ITT) was performed by using a glucose analyzer in the 6-h fasting mice in the 5th week of the supplementation. The glucose concentrations were measured by venous bleeding at 0, 15, 30, 60 and 120 min after an i.p. injection of human insulin at 1 U/kg.” for “libitum.”

BAT = assay: 18F-FDG uptake in BAT by PET/CT; type: in vivo, mice; details: PET/CT 60 min after tracer; fasted overnight; FIG. 14
Method: as §1, with “libitum. […] [formula]” for “libitum.”

UCP1, PRDM16 and PGC-1α = assay: Expression levels of UCP1, PRDM16 and PGC-1α (FIG. 10); type: in vivo; details: relative to mice without DHB
Method: as §1

[9] = 100 mg/kg compared with 50 mg/kg
[10] = adipose tissue (inguinal WAT), real-time PCR, relative to mice without DHB, FIG. 9

COc1ccc2cc3[n+](cc2c1OC)CCc1cc2c(cc1-3)OCO2 [BBR, berberine]
brown adipocyte differentiation and BAT thermogenesis (brown adipocyte): promote
energy expenditure and adaptive thermogenesis (obese db/db mice): increase
thermogenic program in BAT (obese db/db mice): promote the thermogenic program in BAT
weight gain (obese db/db mice): reduce weight gain

COc1ccc2c(c1OC)CN1CCc3cc4c(cc3C1=C2)OCO4 [DHB, dihydroberberine]
rectal temperature (C57BL/6J mice [1]): higher
tolerance to a glucose load (i.p. glucose tolerance test) (C57BL/6J mice [2]): better tolerance to a glucose load
browning of white fat, higher dose than lower dose (UCP1 and PGC-1α; [9]): greater effects
PGC-1α mRNA level (UCP1 and PGC-1α; [10]): higher levels
UCP1 mRNA level (UCP1 and PGC-1α; [10]): higher levels
improving biomarkers related to lipid mobilization, higher dose than lower dose (C57BL/6J mice [3]; [9]): greater effects
TG level (C57BL/6J mice [3]; plasma, HFD mice, DHB i.p. 50 or 100 mg/kg daily for 6 weeks, relative to mice without DHB, FIG. 1): lower levels
TC level (C57BL/6J mice [3]; plasma, HFD mice, DHB i.p. 50 or 100 mg/kg daily for 6 weeks, relative to mice without DHB, FIG. 2): lower levels
LDL level (C57BL/6J mice [3]; plasma, HFD mice, DHB i.p. 50 or 100 mg/kg daily for 6 weeks, relative to mice without DHB, FIG. 3): lower levels
VLDL level (C57BL/6J mice [3]; plasma, HFD mice, DHB i.p. 50 or 100 mg/kg daily for 6 weeks, relative to mice without DHB, FIG. 4): lower levels
intestinal absorption rate relative to BBR [4]: five times higher
BAT thermogenesis and energy expenditure, higher dose than lower dose (C57BL/6J mice [5]; [9]): greater effects
BAT thermogenesis and energy expenditure (C57BL/6J mice [5]; 24 h period, FIG. 13): beneficial effects
oxygen consumption (VO2) rate (C57BL/6J mice [5]; through a 12-h light/dark cycle, 24 h period, 24° C., FIG. 11): markedly higher
carbon dioxide production (VCO2) rate (C57BL/6J mice [5]; through a 12-h light/dark cycle, 24 h period, 24° C., FIG. 12): markedly higher
body weight (weight gain) (C57BL/6J mice [6]; group 2 and 3 (50 and 100 mg/kg), 6 weeks of treatment, week 9 to 14, FIG. 7): obviously protected from weight gain
fat mass percentage (fat accumulation) (C57BL/6J mice [6]; group 3 (100 mg/kg), 9th and 14th week, FIG. 8): inhibited fat accumulation better
body fat percentage (C57BL/6J mice [6]; relative to mice without DHB supplementation): decreases body fat percentage
absorption relative to BBR [7]: better absorbed
insulin tolerance test result, higher-dose group (C57BL/6J mice [8]; [9]): better result
insulin tolerance test result (C57BL/6J mice [8]; 5th week of supplementation, 6-h fasting, human insulin 1 U/kg i.p.): ameliorated glucose tolerance
total accumulated amount of 18F-FDG in BAT (BAT): increase the accumulated amount
expression of PGC-1α (UCP1, PRDM16 and PGC-1α): increase the expression
expression of PRDM16 (UCP1, PRDM16 and PGC-1α): increase the expression
expression of UCP1 (UCP1, PRDM16 and PGC-1α): increase the expression
